Results from the COVID Moonshot data (paper PMC11187573), “Identification of SARS-CoV-2 Mpro inhibitors through deep reinforcement learning for de novo drug design and computational chemistry approaches” (RSC Medicinal Chemistry, 2024).

Tests used:
[1] = molecular target: SARS-CoV-2 Main Protease (SARS-CoV-2) (UniProt P0DTD1)
[2] = molecular target: SARS-CoV-2 Main Protease (SARS-CoV-2) (UniProt P0DTD1); remark: listed apart in the source

| Compound | relative solubility at 20 uM | relative solubility at 100 uM | inhibition ([1]; 50.0 µM) | inhibition ([2]; 20.0 µM) | inhibition ([2]; 50.0 µM) | inhibition ([1]; 20.0 µM) | IC50 [1] |
| --- | --- | --- | --- | --- | --- | --- | --- |
| Cc1ccncc1NC(=O)Cc1cncc(Cl)c1 | 1 | 1.01 | 71.4% | 28.8% | 46% |  |  |
| C=CC(=O)N(c1ccc(C(C)OC)cc1)C(C(=O)Nc1c(C)cccc1CC)c1cccnc1 (configuration not stated) | 0.96 | 0.87 |  | 5.9% | 3.94% | 0% |  |
| C=CC(=O)N(c1ccc(CC)c(I)c1)C(C(=O)NC(C)(C)C)c1cccnc1 (configuration not stated) | 0.95 | 0.93 | 9.38% | 15.2% | 20.7% |  |  |
| Cc1ccncc1NC(=O)CCc1ccccn1 | 1 | 1 | 11.4% | -0.904% | -28.6% |  |  |
| CCN1CCN(Cc2ccccc2CNC(=O)[C@@]2(C)CCN2C(=O)OC(C)(C)C)CC1 (stereo in doubt) | 1 | 1 | 13.2% | -6.3% | -0.697% |  |  |
| NC(=O)C1CCN(c2nnc(C3CCC(=O)N3)n2CCc2cc(F)cc(F)c2)CC1 (configuration not stated) | 1 | 1 | 0% | 1.27% | 3.83% |  |  |
| C=CC(=O)N(c1ccc2ncsc2c1)C(C(=O)Nc1cccc(CC)c1)c1cccnc1 (configuration not stated) | 0.8 | 0.63 |  | 33.9% | 59.3% | 16.6% | 32 µM |
| O=C(NCCNc1ccncc1)c1cccc(S(=O)(=O)Nc2ccccc2-c2ccccc2)c1 | 0.95 | 0.94 | -3.32% | -20.4% | -32.8% |  |  |
| O=C(CCc1cnn[nH]1)NC(Cn1cccn1)c1ccccc1 (configuration not stated) | 1 | 1 | 0% | -1.52% | -1.11% | 0% |  |
| O=C1Nc2c(Br)cccc2C1=O | 0.99 | 0.81 | 67.4% | -4.89% | -4.45% |  | 43.1 µM |
| O=C(NCc1cccnn1)NC(Cc1ccccc1)c1cccs1 (configuration not stated) | 1 | 1 | 0% |  | 13.9% | 0% |  |
| O=C(CCl)N1CCCC(c2nc(-c3cccnc3)nc3ccccc23)C1 (configuration not stated) | 0.9 | 0.89 | 100% | 7.84% | 31.8% |  |  |
| Cc1nnc(NC(=O)Nc2cccnc2)s1 | 1 | 0.99 | 8.86% | 1.19% | 7.32% | 4.62% |  |
| Cc1ccncc1NC(=O)Cc1ccc2[nH]ccc2c1 | 1 | 1 | 0% | 2.86% | -2.33% |  |  |
| C=CC(=O)N(c1ccc(S(F)(F)(F)(F)F)cc1)C(C(=O)Nc1ccc(OC)cc1C)c1cccnc1 (configuration not stated) | 0.92 | 0.75 |  | 5.52% | 12.2% | 0% |  |
| O=C(c1cc(=O)[nH]c2ccc(F)cc12)N1CCN(S(=O)(=O)c2ccc(Cl)cc2)CC1 | 0.98 | 0.81 | 50% | -1.84% | 11.4% |  |  |
| O=C(O)[C@@H](Cc1nc(=O)cc[nH]1)NC[C@@H]1C[C@@H]2C=C[C@H]1C2 (stereo in doubt) | 1 | 1 | 29.5% | 13.7% | 26.4% |  |  |
| Cc1ccncc1NC(=O)Cc1cc(Cl)c2c(c1)OCCO2 | 1 | 1 | 10.9% | 9.83% | 22.2% |  |  |
| C=CC(=O)N(c1ccc(SC)cc1)C(C(=O)NC(C)(C)C)c1cccnc1 (configuration not stated) | 1 | 0.99 |  | 3.54% | 7.75% | 0% |  |

| Compound | relative solubility at 20 uM | relative solubility at 100 uM | inhibition ([1]; 50.0 µM) | inhibition ([2]; 20.0 µM) | inhibition ([2]; 50.0 µM) | inhibition ([1]; 20.0 µM) | IC50 [1] |
| --- | --- | --- | --- | --- | --- | --- | --- |
| C=CC(=O)N(c1ccc(N(C)C)c(C)c1)C(C(=O)Nc1ccc(Br)cc1)c1cccnc1 (configuration not stated) | 0.84 | 0.74 |  | 3.45% | 3.43% | 0% |  |
| Cc1nc(-c2cccc(CNC(=O)Nc3cccc(CN4CCCC4=O)c3)c2)n[nH]1 | 0.98 | 0.98 | 0% | 2.12% | 2.95% |  |  |
| C=CC(=O)N(c1ccc(C(C)OC)cc1)C(C(=O)Nc1ccc(OC)cc1C)c1cccnc1 (configuration not stated) | 0.99 | 0.97 |  | 2.91% | 6.9% | 0% |  |
| O=C(c1cc(=O)[nH]c2ccccc12)N1CCN(c2ccccc2F)CC1 | 0.98 | 0.99 | 46.4% | 50.7% | 75.6% |  |  |
| O=C(Cc1cccnc1)NCc1ccccc1 | 1 | 1 | 13% | 1.31% | 7.29% |  |  |
| O=C(Cc1c[nH]c2ncccc12)N1CCC(N2CCCS2(=O)=O)CC1 | 1 | 1.01 |  | 18.5% | -1.92% | 0% |  |
| CNC(=O)OC1CCN(C(=O)c2ccncc2)CC1 | 1 | 1 | 2.15% |  | -25.3% | 0.65% |  |
| C=CC(=O)N(c1ccc(SC)cc1)C(C(=O)Nc1c(C)cccc1CC)c1cccnc1 (configuration not stated) | 0.85 | 0.67 |  | 11.1% | 24.5% | 0% |  |
| O=C(Cc1c[nH]c2ncccc12)Nc1cccc(Cl)c1 | 0.99 | 0.97 |  | 5.95% | 9.34% | 0% |  |
| Cc1cc(C)c(C)c(S(=O)(=O)N2CCN(C(=O)c3cc[nH]c(=O)c3)CC2)c1C | 0.99 | 0.98 | 0% | -1.5% | 5.56% |  |  |
| C=CC(=O)N(c1cc(C(C)(C)C)on1)C(C(=O)Nc1cccc(CC)c1)c1cccnc1 (configuration not stated) | 0.87 | 0.76 |  | 15.6% | 43.1% | 6.79% |  |
| C=CC(=O)N(c1ccc(C(C)(C)C)cc1)C(C(=O)NC1CCC1)c1cccnc1 (configuration not stated) | 1 | 1 | 51.9% | 6.16% | 12% | 0% |  |
| CC(=O)N1CCN(C(=O)Cc2ccccn2)CC1 | 1 | 1 | 0% | -0.517% | 3.52% | 0% |  |
| Cc1nn(C(C)C)c(C)c1CC(=O)Nc1nncn1C1CC1 | 1 | 1 | 5.29% | -5.19% | -6.89% |  |  |
| O=C(Cc1cccc(Cl)c1)Nc1cnccc1O | 1 | 1 | 0% | 0.0135% | -2.06% |  |  |
| C=CC(=O)Nc1cc(C(=O)NC[C@H](Cc2ccccc2)c2ccccn2)ccc1O (stereo in doubt) | 0.83 | 0.82 |  | 0.684% | 9.48% | 0% |  |
| NS(=O)(=O)c1ccc(N2CCSCC2)cc1 | 1 | 1 | 48.2% |  | -25.9% | 29.1% |  |
| O=C(NCc1cncs1)Nc1cccc(N2CCOCC2)c1 | 1 | 1.01 | 23.8% | 5.65% | 13.6% | 0.672% |  |
| C=CC(=O)N(c1ccc(C(C)C)nc1)C(C(=O)Nc1ccc(OC)cc1C)c1cccnc1 (configuration not stated) | 0.98 | 0.93 |  | 6.56% | 10.4% | 0% |  |
